Measurements as given in paper PMC5955599, “The HTLV-1 gp21 fusion peptide inhibits antigen specific T-cell activation in-vitro and in mice” (PLoS Pathogens, 2018).
Entries after “also recorded” stand apart in the source; their conditions may differ.

What was measured:
[1] = tested on: MOG35-55–antigen specific T-cells; assay: In-vitro T-cell proliferative response (H3-thymidine incorporation); type: cell-based, mouse (C57Bl/6J); conditions: peptide at 10μM
[2] = tested on: MOG35-55-reactive T-cells (spleenocytes harvested at 26 DPI); assay: Ex-vivo MOG35-55 re-stimulation of spleenocytes from EAE mice; type: in vivo, mouse; conditions: mice treated with single dose 1mg/kg
Procedure: (§1) Fig 3 Administration of HTLV FP alleviates MOG35-55-induced EAE. (A-B) MOG35-55–antigen specific T-cells were activated by irradiated MOG35-55 presenting APCs, in the presence of HTLV FP or HTLV Scr at 10μM. (A) The proliferative responses were assessed by H^3-thymidine incorporation assay, and normalized to the proliferation of non-activated T-cells. The data is presented as mean inhibition of proliferation. n = 12. (B) IFN-γ was measured by ELISA assay. n = 12. (C-D) EAE was induced in C57BL/6 female mice that were treated with a single dose of HTLV FP, HTLV Scr or vehicle. […] (C) Direct clinical measurement of EAE phenotype in a 5-point scale with increased disease symptoms correlating with higher score value. The data is presented as mean EAE clinical score. (D) Mice were weighed the day before EAE induction, and the change (as a percentage) in weight was recorded. The data is presented as mean change from the initial weight. One-way ANOVA was used for statistical analysis. ^a HTLV FP ≠ Vehicle; ^b HTLV FP ≠ Vehicle & HTLV Scr; ^c HTLV FP ≠ HTLV Scr. ^a,b,cP<0.05. (E) Spleenocytes were harvested at 26 DPI and stimulated using MOG35-55. The proliferative responses were assessed by H^3-thymidine incorporation assay and normalized to the proliferation of non-activated T-cells. The data is presented as counts per minute (CPM). n = 7. (F-G) Spleenocytes were harvested at 26 DPI and stimulated using MOG35-55. Media was collected 48 hours following activation and secretion of IFN-γ and IL4 was measured by ELISA assay. […] One-way ANOVA was used for statistical analysis. *P<0.05;**P<0.01;***P<0.001; ns, not significant.
We then performed an additional EAE experiment in which mice were treated with a single dose of HTLV FP (1mg/kg), HTLV Scr (1mg/kg) or vehicle. […] As disease manifestation was milder compared to the previous experiment, we were able to monitor animals for a longer period of time. […]

[3] = tested on: C57BL/6 female mice; assay: MOG35-55-induced experimental autoimmune encephalomyelitis (EAE); type: in vivo, mouse
Procedure: as §1, with “(A-B)” for “Fig 3 Administration of HTLV FP alleviates MOG35-55-induced EAE. (A-B)”
EAE was induced in 9-week-old wild type and homozygous C57BL/6 female mice (Harlan Laboratories Israel/ Weizmann Institute animal facilities) by injecting a peptide comprising residues 35–55 of mouse myelin oligodendrocyte glycoprotein (MOG35–55; PolyPeptide Laboratories, Strasbourg, France). Mice were injected subcutaneously above the lumbar spinal cord with 100 μl of emulsion containing 200 μg/mouse of the encephalitogenic peptide in complete Freund’s adjuvant (BD-Difco) enriched with 250 μg/mouse of heat-inactivated Mycobacterium tuberculosis (BD-Difco) at 0 days post-induction (DPI). The HTLV FP was dissolved in PBS and added to the emulsion (1mg/kg). Pertussis toxin (Enzo Life Sciences) at a dose of 300 ng per mouse was injected intraperitoneally immediately after the encephalitogenic injection, as well as at […]. EAE disease was scored using a five-point grading with 0 for no clinical disease; 1, tail weakness; 2, paraparesis (incomplete paralysis of one or two hindlimbs); 3, paraplegia (complete paralysis of one or two hindlimbs); 4, paraplegia with forelimb weakness or paralysis; 5, moribund or dead animals. The mice were examined daily.
EAE was induced in C57BL/6 female mice that were either treated with a single dose of HTLV FP or vehicle. […] (A) Direct clinical measurement of EAE phenotype in a 5-point scale with increased disease symptoms correlating with higher score value. The data is presented as mean EAE clinical score. (B) Mice were weighed the day before EAE induction, and the change (as a percentage) in weight was recorded. The data is presented as mean change from the initial weight. Student’s t-test was used for statistical analysis. *P<0.05; **P<0.01;***P<0.001. (TIF) Click here for additional data file.

[4] = harvested at 26 DPI, media 48 hours following activation, ELISA, n>8, compared to vehicle and HTLV Scr groups

AVPVAVWLVSALAMGAGVAGGITGSMSLASGKS [HTLV FP, gp21 fusion peptide of HTLV-1, MT-2 isolate]
inhibition of T-cell proliferation, activation by PMA and Ionomycin ([1]; 50ng/mL PMA with 1μM ionomycin, n = 12): inhibited T-cell proliferation induced at all three levels of activation with equal potency
inhibition of T-cell proliferation, activation by antibodies against CD3 and CD28 ([1]; CD3 and CD28 antibodies 2μg/ml, n = 12): inhibited T-cell proliferation induced at all three levels of activation with equal potency
inhibition of T-cell proliferation, activation by MOG35-55 presenting APCs ([1]; irradiated MOG35-55 presenting APCs, mean inhibition of proliferation, n = 12, 10 µM): inhibit T-cell proliferation with equal potency to that of HIV’s FP and significantly stronger than the BLV FP; also recorded: inhibited T-cell proliferation induced at all three levels of activation with equal potency; also recorded: inhibited both T-cell proliferation and IFN-γ secretion with higher potency than the HTLV Scr; also recorded: inhibit T-cell proliferation with higher potency than HTLV FP9-22 and HTLV FP14-22
IFN-γ secretion of spleenocytes stimulated with MOG35-55 [2, 4]: significantly lower IFN-γ secretion
IL4 secretion of spleenocytes stimulated with MOG35-55 [2, 4]: significantly higher IL4 secretion
T-cell proliferative response of spleenocytes stimulated with MOG35-55 ([2]; spleens harvested at 26 DPI, H3-thymidine incorporation, CPM, n = 7): significantly lower in HTLV FP treated spleenocytes compared to HTLV Scr treated spleenocytes
clinical symptoms of a cage of treated mice at DPI 17 ([3]; additional experiment, S5 and S6 Movies): mild clinical symptoms
mice exhibiting no clinical manifestation at DPI 17 ([3]; additional experiment, S6 Movie): 3 out of 5
clinical symptoms of a cage of treated mice at DPI 9 ([3]; initial experiment, S3 Movie): no observed clinical symptoms
mice exhibiting mild clinical symptoms at DPI 14 ([3]; initial experiment, S4 Movie, rest with no observed clinical signs): 1 out of 5
EAE clinical symptoms, initial experiment ([3]; single dose 1mg/kg added to the MOG35-55/CFA emulsion, vs vehicle, terminated at 14 DPI, 5-point scale): only mild clinical symptoms
EAE clinical signs, additional experiment ([3]; single dose 1mg/kg, HTLV FP, HTLV Scr or vehicle, period 11 to 16 DPI, 5-point scale): only mild clinical symptoms and weight loss
locomotory behavior, initial experiment ([3]; single dose 1mg/kg, S3 and S4 Movies): most of the HTLV FP treated mice exhibited normal locomotory behavior
locomotory behavior, additional experiment ([3]; single dose 1mg/kg, S5 and S6 Movies): better locomotory behavior than the HTLV Scr treated mice
weight change, initial experiment ([3]; single dose 1mg/kg, change from initial weight): only by minor weight fluctuations
weight loss, additional experiment ([3]; single dose 1mg/kg, period 11 to 16 DPI): only mild clinical symptoms and weight loss
first observation of clinical symptoms, initial experiment ([3]; single dose 1mg/kg, vehicle-treated mice first observed at 8 DPI): 11 DPI
